This is an account of results in patent publication US12029713B2, “Compositions and methods for the treatment of brain injury” (THE CHILDREN'S HOSPITAL OF PHILADELPHIA, priority 2013, dated 2024).

The subject of data set [1] is fluid percussion injury mice. Kind of data set: Conditioned fear response (CFR) after fluid percussion injury, GTA oral gavage. Type of data set: in vivo, mouse. To be noted: 5 mg/kg oral gavage for 5 days, CFR on day 7 (FIG. 5). The protocol: A fluid percussion injury assay was performed. Briefly, a craniotomy was performed on anesthetized mice using a 3 mm trephine and a Luer-Hoc needle hub attached to the skull and capped. The following day, a fluid percussion injury device was employed to deliver a pulse of saline through the hub at a pressure between 1.4-2.14 atm, producing a mild to moderate percussion injury. Sham animals received all anesthesia and surgical procedures except for the fluid pulse.
Mice were allowed to recover for one day. Mice were then treated with 5 mg/kg of glyceryl triacetate (GTA) via oral gavage for 5 days. The conditioned fear response (CFR) assay was performed on day 7.

The conditions of data set [2]: within one hour of administration; cited from earlier work.

For `CC(=O)OCC(COC(C)=O)OC(C)=O` [GTA, glyceryl triacetate], the “fear response (CFR) compared to mice receiving the brain injury without treatment” value in data set [1] is given as “statistically superior”. For the same molecule, in data set [2], the “increase of acetate levels in the brain” value is recorded as “over 15 fold”.
